Series [1] has as its system MOLM-13. Kind of series: CellTiter-Glo cell viability, 72 h, single agents and combination dose matrix. The format is cell-based. The note with it: Homo sapiens, MOLM-13, 72 h, single agent. On the procedure:
For MOLM-13, RPMI (R8758, Sigma Aldrich)+10% FBS (F0804, Sigma Aldrich), heat inactivated at 56° C. for 60 min.
(§1) 75 cm^2 flask (100% confluent) cells was transfer to a 15 ml tube and centrifuged at 1000 RPM for 5 min. Then supernatant was discarded, and cell pellet was resuspended in 6 ml medium. The cells were counted in the TC20 automated cell counter. 10 ml cell culture medium was prepared with 60,000 cells/ml, corresponding to 3,000 cells when 50 μl is seeded out (for MOLM-13, 12,000 cells were used). Cells were seeded in 96-well plates in column 2-12, row B-G, for blank, 100 μL cell culture medium was added. Plates were incubated overnight at 37° C.
(§2) Combenefit 2.021 was used for data analysis.
(§3) The CellTiter-Glo® Luminescent Cell Viability Assay is a homogeneous method of determining the number of viable cells in culture based on quantitation of the ATP present, an indicator of metabolically active cells. The homogeneous assay procedure involves adding the single reagent (CellTiter-Glo® Reagent) directly to cells cultured in serum-supplemented medium. The homogeneous “add-mix-measure” format results in cell lysis and generation of a luminescent signal proportional to the amount of ATP present. The amount of ATP is directly proportional to the number of cells present in culture.
(§4) The experimental dose-response surface that delineates combination effects in concentration space, is first read by the Combenefit software as a matrix of % of the control value across concentrations. […] Based on the two single agent dose response curves, a model-based combination dose-response surface is derived. This surface provides a “reference” dose-response surface for a non-synergistic (additive/independent) combination, whose characteristics are determined by the selected model (i.e., Loewe, Bliss or HSA). The experimental combination dose response surface is then compared to the model-generated one, resulting in a synergy distribution in concentration space.
(§5) This synergy distribution can be further summarized via various metrics (Di Veroli. C, Bioinformatics, 32(18), 2016, 2866-2868) as follows: • SYN_MAX—the maximum level of synergy observed. • SYN_SUM—the sum of synergy observed in concentration logarithmic space. For instance, an integrated synergy of 50 is equivalent to an extra synergistic effect of 50% which is spread over a square of 1 log×1 log in the 2-d log-concentration space.
A general note: ATP-based viability assays read luminescence as a measure of living cells.

Series [2] has as its system MV4-11. Described as above. It is filed as cell-based. The conditions noted are these: Homo sapiens. On the procedure:
For MV4-11: IMEM (Sigma Cat. no. I3390), 10% FBS (Sigma Cat. no. F084) and 1% L-glutamine (Sigma, Cat.no. G7513).
as §1, §2, §3, §4, §5

The subject of series [3] is KBM-3. The series is described as above. It is filed as cell-based. On the procedure: (§6) For cell lines KBM3, KG-1 and HL-60: IMEM (Sigma Cat. no. I3390), 20% FBS (Sigma Cat. no. F084) and 1% L-glutamine (Sigma, Cat.no. G7513).
as §1, §2, §3, §4, §5

The subject of series [4] is HL-60. Described as above. The format is cell-based. The conditions noted are these: Homo sapiens. On the procedure:
as §6, §1, §2, §3, §4, §5

Series [5] relates to KG-1. The description is as above. It is filed as cell-based. The note with it: Homo sapiens. On the procedure: as §6, §1, §2, §3, §4, §5
Series [6] deals with AML cell lines. Kind of series: CellTiter-Glo cell viability, results summarised over the cell line panel. The conditions noted are these: for IC50: read-out: IC50 values, range over cell lines.
Method: (§7) Plates was taken from the incubator to reach room temperature about 30 min. 100 μL CellTiter-Glo was added to all wells (except edge wells). Plates were then shaken on a plate shaker for 3 minutes at room temperature; thereafter the plates were set for 10 min at room temperature to allow cell lysis to appear. The luminescence was measured using the PerkinElmer Victor×4 instrument using the built-in program according to Instruction 11. Combenefit 2.021 was used for data analysis.
(§8) For IC50 determinations, the serial dilution of compounds was performed in cell culture medium based on 1.5- or 2-fold dilution factor. The serially diluted compounds were added to the cells and incubated for 72 h followed by cell viability test using the CTG assay. For each concentration, the current viability values were calculated and IC50 values were determined by XLfit software version 5.5.0.5 (a Microsoft Excel-based plug-in to perform regression, curve fitting and statistical analysis).
(§9) Combenefit performs combination analyses using the standard Loewe, Bliss and HSA methods. In the HSA model, the synergy score quantifies the excess over the highest single drug response. In the Loewe model, the synergy score quantifies the excess over the expected response if the two drugs are the same compound.
(§10) A “combination index” (CI) is then calculated as the measured cell viability of the sample with two co-incubated substances divided by the predicted cell viability.
(§11) If the measured cell viability for a combination of two substances is higher than the cell viability for one or both substances, the effect is considered antagonistic. If the predicted viability is very low, the quote “measured viability/predicted viability” may give false CI values.
Series [7] deals with SKM-1. Kind of series: CellTiter-Glo cell viability, 72 h, single agents and combination dose matrix. The format is cell-based. The note with it: single agent. On the procedure: For SKM-1, RPMI (R8758, Sigma Aldrich)+20% FBS (F0804, Sigma Aldrich), heat inactivated at 56° C. for 60 min.
as §1, §2, §3
The experimental dose-response surface that delineates combination effects in concentration space, is first read by the Combenefit software as a matrix of % of the control value across concentrations. […] Based on the two single agent dose response curves, a model-based combination dose-response surface is derived. This surface provides a “reference” dose-response surface for a non-synergistic (additive/independent) combination, whose characteristics are determined by the selected model (i.e., Loewe, Bliss or HSA). The experimental combination dose response surface is then compared to the model-generated one, resulting in a synergy distribution in concentration space. […]

In series [8] the test system is AML cell lines.
Method: as §7, §8, §9, §10, §11
The mark [9] stands for this setting: MOLM-13 (AML, p53 WT), separate study of Example 3.
Setting [10] is: MV4-11 (AML, p53 R248W), single agent.
The mark [11] stands for this setting: KBM-3 (AML, p53 WT), single agent.
Where [12] appears, read: HL-60 (AML, p53 Null (deletion)), single agent.
The mark [13] stands for this setting: KG-1 (AML, p53 Intron6/splice), single agent.
Where [14] appears, read: Homo sapiens, SKM-1 (MDS, p53 R248Q).

Read-outs that look alike come from different tables or passages of the source.

As usually defined, the IC50 is the point on the concentration scale where inhibition reaches its midpoint. For the compound `COc1ccccc1-c1nccc(COc2ccccc2CC(Oc2ncnc3sc(-c4ccc(F)cc4)c(-c4ccc(OCCN5CCN(C)CC5)c(Cl)c4C)c23)C(=O)O)n1` (stereo in doubt) [MIK665, (R)-2-((5-(3-chloro-2-methyl-4-(2-(4-methylpiperazin-1-yl)ethoxy)phenyl)-6-(4-fluorophenyl)thieno[2,3-d]pyrimidin-4-yl)oxy)-3-(2-((2-(2-methoxyphenyl)pyrimidin-4-yl)methoxy)phenyl)propanoic acid], the concentration for half-maximal inhibition (IC50) in series [1] (MOLM-13, Example 4) was 2 nM; in series [2] (MV4-11, single agent, Example 4) it was 1.4 nM; in series [3] (KBM-3, single agent, Example 4), 40 nM; in series [4] (HL-60, single agent, Example 4) it was 7 nM; in series [5] (KG-1, single agent, Example 4) it was 600 nM; in series [6] it was 1 to 600 nM. In series [6], the “single agent anti-proliferative activity” value was “dose-dependent anti-proliferative activity”.
Regarding `CC1(C)CCC(CN2CCN(c3ccc(C(=O)NS(=O)(=O)c4ccc(NCC5CCOCC5)c([N+](=O)[O-])c4)c(Oc4cnc5[nH]ccc5c4)c3)CC2)=C(c2ccc(Cl)cc2)C1` [ABT-199, 2-(1H-pyrrolo[2,3-b]pyridin-5-yloxy)-4-(4-((2-(4-chlorophenyl)-4,4-dimethylcyclohex-1-enyl)methyl)piperazin-1-yl)-N-(3-nitro-4-(((tetrahydro-2H-pyran-4-yl)methyl)amino)phenylsulfonyl)benzamide], the half-inhibitory concentration (IC50) came to 1 nM in series [1] (MOLM-13 (AML, p53 WT)); 1.4 nM in series [1] (setting [9]); 160 nM in series [2] (setting [10]); 1360 nM in series [3] (setting [11]); 60 nM in series [4] (setting [12]); 1500 nM in series [5] (setting [13]). Also, the 50% inhibitory concentration (IC50) was 70 nM in series [7] (setting [14]) and 1 to 1500 nM in series [6] (single agent, cell lines of Table 3). In addition, the “single agent anti-proliferative activity” value in series [6] is given as “dose-dependent anti-proliferative activity”. Besides, the “single agent cytotoxic activity” value in series [6] (MOLM-13 and SKM-1) is “dose-dependent cytotoxic activity”.
Turning to `COCC1(CO)C(=O)C2CCN1CC2` (stereo not drawn) [APR-246, 2-(hydroxymethyl)-2-(methoxymethyl)quinuclidin-3-one], the IC50 turned out to be 9500 nM in series [1] (MOLM-13 (AML, p53 WT)); 2500 nM in series [2] (setting [10]); 3700 nM in series [3] (setting [11]); 8100 nM in series [4] (setting [12]); 11000 nM in series [5] (setting [13]); 1090 nM in series [7] (setting [14]). For the same compound, the IC50 in series [6] was in the range of 1000 to 11000 nM. Also, the “single agent anti-proliferative activity” value in series [6] is “dose-dependent anti-proliferative activity”.
With `O=C1C2CCN(CC2)C1CNC(=O)C(F)(F)F` (stereo not drawn) [Compound A, 2,2,2-trifluoro-N-((3-oxoquinuclidin-2-yl)methyl)acetamide], the IC50 in series [1] (setting [9]) came out at 3600 nM; in series [2] (MV4-11, single agent, Example 3) it was 1000 nM; in series [3] (KBM-3, single agent, Example 3) it was 1700 nM; in series [7] (SKM-1 (MDS/AML, p53 R248Q homo/hemizygous), separate study of Example 3), 660 nM. Also, the “single agent cytotoxic activity” value in series [8] is listed as “dose-dependent cytotoxic activity”.

(Values after patent publication US20220339141A1, “COMBINATION TREATMENT WITH A P53 REACTIVATOR AND AN INHIBITOR OF AN ANTIAPOPTOTIC BCL-2 FAMILY PROTEIN” (Aprea Therapeutics AB, priority 2019, published 2022).)
